Data as given in ChEMBL document CHEMBL5647694, “Novel orally bioavailable EZH1/2 dual inhibitors with greater antitumor efficacy than an EZH2 selective inhibitor” (Cancer Sci, 2017).
Activity calls are given as the source filed them. No cut-off for these calls is given here.

What was measured:
[1] = tested on: SUP-B15; assay: Antitumor activity against human SUP-B15 cells assessed as cell growth inhibition treated for 10 to 15 days; format: functional; conditions: time 10-15 day
[2] = tested on: P3HR-1; assay: Antitumor activity against human P3HR-1 cells assessed as cell growth inhibition treated for 10 to 15 days; format: functional; conditions: time 10-15 day
[3] = Antitumor activity against human BCP-1 cells assessed as cell growth inhibition treated for 10 to 15 days; format: functional; conditions: time 10-15 day
[4] = tested on: BT-474; assay: Antitumor activity against human BT-474 cells assessed as cell growth inhibition treated for 10 to 15 days; format: functional; conditions: time 10-15 day
[5] = target: Histone-lysine N-methyltransferase SETD7 (Homo sapiens, UniProt Q8WTS6); assay: Inhibition of human SET7/9 using Core Histone and [3H]SAM as substrate incubated for 30 mins to 1 hr by HotSpot kinase assay
[6] = target: Ephrin type-B receptor 2 (Homo sapiens) (UniProt P29323); assay: Inhibition of N-terminal GST-fused human EPHB2 cytoplasmic domain (581 to 987 residues) expressed in baculovirus-infected Sf21 cells using Blk/Lyntide as substrate at 1 uM in presence of ATP by Mobility shift assay
[7] = target: MAP kinase-activated protein kinase 2 (Homo sapiens) (UniProt P49137); assay: Inhibition of N-terminal GST-fused full length human MAPKAPK2 (1 to 400 residues) expressed in baculovirus expression system using GS peptide as substrate at 1 uM in presence of ATP by Mobility shift assay
[8] = tested on: KG-1; assay: Antitumor activity against human KG-1 cells assessed as cell growth inhibition treated for 10 to 15 days; format: functional; conditions: time 10-15 day
[9] = tested on: K562; assay: Antitumor activity against human K562 cells assessed as cell growth inhibition treated for 10 to 15 days; format: functional; conditions: time 10-15 day
[10] = tested on: DB; assay: Antitumor activity against human DB cells assessed as cell growth inhibition treated for 10 to 15 days; format: functional; conditions: time 10-15 day
[11] = tested on: RPMI-6666; assay: Antitumor activity against human RPMI-6666 cells assessed as cell growth inhibition treated for 10 to 15 days; format: functional; conditions: time 10-15 day
[12] = Antitumor activity against human RDES cells assessed as cell growth inhibition treated for 10 to 15 days; format: functional; conditions: RD-ES, time 10-15 day
[13] = tested on: DU-4475; assay: Antitumor activity against human DU-4475 cells assessed as cell growth inhibition treated for 10 to 15 days; format: functional; conditions: time 10-15 day
[14] = tested on: HCC1599; assay: Antitumor activity against human HCC1599 cells assessed as cell growth inhibition treated for 10 to 15 days; format: functional; conditions: time 10-15 day
[15] = tested on: HCC1954; assay: Antitumor activity against human HCC1954 cells assessed as cell growth inhibition treated for 10 to 15 days; format: functional; conditions: time 10-15 day
[16] = tested on: T47D; assay: Antitumor activity against human T47D cells assessed as cell growth inhibition treated for 10 to 15 days; format: functional; conditions: time 10-15 day
[17] = tested on: LS180; assay: Antitumor activity against human LS180 cells assessed as cell growth inhibition treated for 10 to 15 days; format: functional; conditions: time 10-15 day
[18] = tested on: LoVo; assay: Antitumor activity against human LoVo cells assessed as cell growth inhibition treated for 10 to 15 days; format: functional; conditions: time 10-15 day
[19] = tested on: HCT-15; assay: Antitumor activity against human HCT-15 cells assessed as cell growth inhibition treated for 10 to 15 days; format: functional; conditions: time 10-15 day
[20] = tested on: RKO; assay: Antitumor activity against human RKO cells assessed as cell growth inhibition treated for 10 to 15 days; format: functional; conditions: time 10-15 day
[21] = tested on: SW48; assay: Antitumor activity against human SW48 cells assessed as cell growth inhibition treated for 10 to 15 days; format: functional; conditions: time 10-15 day
[22] = tested on: A704; assay: Antitumor activity against human A704 cells assessed as cell growth inhibition treated for 10 to 15 days; format: functional; conditions: time 10-15 day
[23] = tested on: NCI-H1436; assay: Antitumor activity against human NCI-H1436 cells assessed as cell growth inhibition treated for 10 to 15 days; format: functional; conditions: time 10-15 day
[24] = Antitumor activity against human NCI-H1781 cells assessed as cell growth inhibition treated for 10 to 15 days; format: functional; conditions: time 10-15 day
[25] = Antitumor activity against human OVISE cells assessed as cell growth inhibition treated for 10 to 15 days; format: functional; conditions: time 10-15 day
[26] = Antitumor activity against human NCI-H660 cells assessed as cell growth inhibition treated for 10 to 15 days; format: functional; conditions: time 10-15 day
[27] = tested on: PC-3; assay: Antitumor activity against human PC-3 cells assessed as cell growth inhibition treated for 10 to 15 days; format: functional; conditions: time 10-15 day
[28] = tested on: SNU-5; assay: Antitumor activity against human SNU-5 cells assessed as cell growth inhibition treated for 10 to 15 days; format: functional; conditions: time 10-15 day
[29] = tested on: ECC10; assay: Antitumor activity against human ECC10 cells assessed as cell growth inhibition treated for 10 to 15 days; format: functional; conditions: time 10-15 day
[30] = tested on: AGS; assay: Antitumor activity against human AGS cells assessed as cell growth inhibition treated for 10 to 15 days; format: functional; conditions: time 10-15 day
[31] = tested on: HGC-27; assay: Antitumor activity against human HGC-27 cells assessed as cell growth inhibition treated for 10 to 15 days; format: functional; conditions: time 10-15 day
[32] = tested on: MKN-7; assay: Antitumor activity against human MKN-7 cells assessed as cell growth inhibition treated for 10 to 15 days; format: functional; conditions: time 10-15 day
[33] = Cmax in BALB/c mouse at 6.3 mg/kg administered as single dose; format: ADME, organism-based; conditions: in vivo, route po
[34] = tested on: KARPAS-422; assay: Antitumor activity against human KARPAS-422 cells xenografted in CB17/Icr-Prkdcscid/CrlCrlj mouse assessed as inhibition of tumor growth at 50 mg/kg, po BID for 14 days; format: functional, organism-based; conditions: time 14.0 day
[35] = Toxicity in Crl:CD Sprague-Dawley rat assessed as decrease in body weight at 100 mg/kg, po administered daily for 14 days; format: organism-based; conditions: in vivo, 336 h, time 14 day
[36] = Toxicity in Crl:CD Sprague-Dawley rat assessed as red blood cell count in blood at 100 mg/kg, po administered daily for 14 days (reference value: 6.71+/-0.386 10^6/uL); format: organism-based; conditions: in vivo, 336 h, time 14 day
[37] = Toxicity in Crl:CD Sprague-Dawley rat assessed as hemoglobin level in blood at 100 mg/kg, po administered daily for 14 days (reference value: 13.5 +/-0.386 g/dL); format: organism-based; conditions: in vivo, 336 h, time 14 day
[38] = Toxicity in Crl:CD Sprague-Dawley rat assessed as mean corpuscular volume in blood at 100 mg/kg, po administered daily for 14 days (reference value: 61.5 +/-1.92 fL); format: organism-based; conditions: in vivo, 336 h, time 14 day
[39] = Toxicity in Crl:CD Sprague-Dawley rat assessed as MCHC level in blood at 100 mg/kg, po administered daily for 14 days (reference value: 32.7 +/-0.05%); format: organism-based; conditions: in vivo, 336 h, time 14 day
[40] = Toxicity in Crl:CD Sprague-Dawley rat assessed as total cholesterol level in blood at 100 mg/kg, po administered daily for 14 days (reference value: 63.5 +/-[…]); format: organism-based; conditions: in vivo, 336 h, time 14 day
[41] = Toxicity in Crl:CD Sprague-Dawley rat assessed as glucose level in blood at 100 mg/kg, po administered daily for 14 days (reference value: 193 +/-[…]); format: organism-based; conditions: in vivo, 336 h, time 14 day
[42] = Toxicity in Crl:CD Sprague-Dawley rat assessed as creatinine level in blood at 100 mg/kg, po administered daily for 14 days (reference value: 0.223 +/-[…]); format: organism-based; conditions: in vivo, 336 h, time 14 day
[43] = Toxicity in Crl:CD Sprague-Dawley rat assessed as vacuolation of histiocytes in thymus cortex at 100 mg/kg, po administered daily for 14 days by hematoxylin and eosin staining based analysis; format: organism-based; conditions: in vivo, 336 h, time 14 day

Chain of MAP kinase-activated protein kinase 2 (Homo sapiens) (P49137 whole entry, looked up, the tested form may be a part): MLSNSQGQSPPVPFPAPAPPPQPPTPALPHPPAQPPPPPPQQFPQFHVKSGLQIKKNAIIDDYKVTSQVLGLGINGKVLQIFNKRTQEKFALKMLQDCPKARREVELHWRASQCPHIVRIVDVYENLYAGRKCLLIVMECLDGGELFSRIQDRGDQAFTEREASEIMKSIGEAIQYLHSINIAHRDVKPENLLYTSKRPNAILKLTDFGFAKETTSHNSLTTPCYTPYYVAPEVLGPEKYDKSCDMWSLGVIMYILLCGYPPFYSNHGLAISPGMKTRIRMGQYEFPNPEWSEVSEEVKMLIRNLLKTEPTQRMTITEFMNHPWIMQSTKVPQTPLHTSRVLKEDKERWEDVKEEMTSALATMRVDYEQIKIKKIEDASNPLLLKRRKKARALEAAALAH
Chain of Histone-lysine N-methyltransferase SETD7 (Q8WTS6 whole entry, the tested form may be a part): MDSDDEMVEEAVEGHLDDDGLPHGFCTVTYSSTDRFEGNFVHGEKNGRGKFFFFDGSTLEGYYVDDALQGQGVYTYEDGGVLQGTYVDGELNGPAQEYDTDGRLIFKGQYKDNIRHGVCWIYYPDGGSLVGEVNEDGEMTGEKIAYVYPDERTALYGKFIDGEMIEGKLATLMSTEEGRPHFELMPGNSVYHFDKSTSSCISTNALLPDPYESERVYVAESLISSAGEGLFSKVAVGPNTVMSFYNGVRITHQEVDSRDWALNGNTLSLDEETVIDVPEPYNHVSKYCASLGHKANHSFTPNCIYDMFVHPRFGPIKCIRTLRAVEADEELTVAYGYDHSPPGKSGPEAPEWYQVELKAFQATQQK
Chain of Ephrin type-B receptor 2 (Homo sapiens) (P29323 whole entry, the tested form may be a part): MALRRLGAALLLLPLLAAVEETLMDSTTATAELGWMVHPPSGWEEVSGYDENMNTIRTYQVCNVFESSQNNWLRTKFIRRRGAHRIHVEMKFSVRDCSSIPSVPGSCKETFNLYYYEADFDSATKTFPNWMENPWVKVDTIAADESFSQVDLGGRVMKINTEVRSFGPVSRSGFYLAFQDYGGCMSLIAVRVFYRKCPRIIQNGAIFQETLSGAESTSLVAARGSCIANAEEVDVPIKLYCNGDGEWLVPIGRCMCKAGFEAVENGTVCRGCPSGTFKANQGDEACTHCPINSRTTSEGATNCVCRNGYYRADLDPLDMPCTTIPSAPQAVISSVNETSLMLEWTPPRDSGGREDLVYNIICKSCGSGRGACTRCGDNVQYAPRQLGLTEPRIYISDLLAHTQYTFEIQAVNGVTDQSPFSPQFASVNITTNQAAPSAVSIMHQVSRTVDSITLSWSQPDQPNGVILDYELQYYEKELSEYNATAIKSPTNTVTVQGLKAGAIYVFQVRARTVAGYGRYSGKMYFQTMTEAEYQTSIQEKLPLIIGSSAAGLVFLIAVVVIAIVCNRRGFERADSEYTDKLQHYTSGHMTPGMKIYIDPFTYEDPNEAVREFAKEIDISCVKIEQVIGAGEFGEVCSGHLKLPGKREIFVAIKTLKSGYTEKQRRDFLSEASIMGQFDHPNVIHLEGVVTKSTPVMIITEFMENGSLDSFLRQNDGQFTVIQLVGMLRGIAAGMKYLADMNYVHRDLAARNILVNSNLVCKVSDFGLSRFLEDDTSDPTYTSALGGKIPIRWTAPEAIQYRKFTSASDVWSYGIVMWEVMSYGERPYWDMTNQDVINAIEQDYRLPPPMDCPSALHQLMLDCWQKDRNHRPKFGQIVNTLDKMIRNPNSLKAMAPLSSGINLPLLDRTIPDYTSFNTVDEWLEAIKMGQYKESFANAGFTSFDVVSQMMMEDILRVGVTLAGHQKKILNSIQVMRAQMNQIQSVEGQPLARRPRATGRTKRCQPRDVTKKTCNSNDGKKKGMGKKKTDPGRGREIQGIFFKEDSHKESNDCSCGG

**Q.** Which GI50 [1] does the source give for `Cc1cc(C)c(CNC(=O)c2cc(Cl)c3c(c2C)O[C@@](C)([C@H]2CC[C@H](N(C)C)CC2)O3)c(=O)[nH]1` [VALEMETOSTAT] here?
**A.** 0.0243 µM

**Q.** What about the GI50 [2] of the same compound?
**A.** 0.0143 µM

**Q.** And the GI50 [3]?
**A.** > 1 µM

**Q.** What about the GI50 [4] of the same compound?
**A.** > 1 µM

**Q.** What about the IC50 [5] of the same compound?
**A.** 100 µM

**Q.** And the inhibition [6]?
**A.** -6.2%

**Q.** What about the inhibition [7] of the same compound?
**A.** 6.7%

**Q.** What about the GI50 [8] of the same compound?
**A.** 0.7 µM

**Q.** And the GI50 [9]?
**A.** 0.788 µM

**Q.** And the GI50 [10]?
**A.** 0.00411 µM

**Q.** And the GI50 [11]?
**A.** 0.0684 µM

**Q.** What about the GI50 [12] of the same compound?
**A.** > 1 µM

**Q.** And the GI50 [13]?
**A.** > 1 µM

**Q.** What about the GI50 [14] of the same compound?
**A.** > 1 µM

**Q.** What about the GI50 [15] of the same compound?
**A.** > 1 µM

**Q.** What about the GI50 [16] of the same compound?
**A.** > 1 µM

**Q.** What about the GI50 [17] of the same compound?
**A.** 0.0955 µM

**Q.** And the GI50 [18]?
**A.** 0.15 µM

**Q.** What about the GI50 [19] of the same compound?
**A.** > 1 µM

**Q.** What about the GI50 [20] of the same compound?
**A.** > 1 µM

**Q.** And the GI50 [21]?
**A.** > 1 µM

**Q.** And the GI50 [22]?
**A.** > 1 µM

**Q.** What about the GI50 [23] of the same compound?
**A.** 0.216 µM

**Q.** And the GI50 [24]?
**A.** > 1 µM

**Q.** What about the GI50 [25] of the same compound?
**A.** > 1 µM

**Q.** What about the GI50 [26] of the same compound?
**A.** > 1 µM

**Q.** What about the GI50 [27] of the same compound?
**A.** > 1 µM

**Q.** And the GI50 [28]?
**A.** 0.0524 µM

**Q.** And the GI50 [29]?
**A.** 0.0845 µM

**Q.** And the GI50 [30]?
**A.** > 1 µM

**Q.** What about the GI50 [31] of the same compound?
**A.** > 1 µM

**Q.** And the GI50 [32]?
**A.** > 1 µM

**Q.** For `Cc1cc(C)c(CNC(=O)c2cc(Br)c3c(c2C)O[C@@](C)([C@H]2CC[C@H](N(C)C)CC2)O3)c(=O)[nH]1`, which Cmax [33] is on record?
**A.** 0.45 µM

**Q.** And the Activity [34]?
**A.** Active

**Q.** And the Activity [35]?
**A.** Toxic

**Q.** What about the Activity [36] of the same compound?
**A.** 6.59 10^6 /uL

**Q.** And the Activity [37]?
**A.** 13 g/dL

**Q.** What about the Activity [38] of the same compound?
**A.** 60.9 fL

**Q.** And the Activity [39]?
**A.** 32.5%

**Q.** And the Activity [40]?
**A.** 64 mg/dL

**Q.** What about the Activity [41] of the same compound?
**A.** 216 mg/dL

**Q.** And the Activity [42]?
**A.** 0.238 mg/dL

**Q.** What about the Activity [43] of the same compound?
**A.** Toxic
